Results on three molecules are retold here after ChEMBL document CHEMBL1149784, “Discovery of a new anilino-3H-pyrrolo[3,2-f]quinoline derivative as potential anti-cancer agent” (Eur J Med Chem, 2008).

The source made the active and inactive calls. The calls are words filed in the database; no cut-off is given here.

The test system of test [1] is OVCAR-3. The test is described as follows: Cell cycle arrest in human OVCAR-3 cells assessed as accumulation at subG0 phase at 1 uM by flow cytometry. It counts as functional. A general note: In flow cytometry, cells or beads pass a laser one at a time.
Test [2] deals with OVCAR-3. The test is described as follows: Cell cycle arrest in human OVCAR-3 cells assessed as accumulation at G2/M phase at 1 uM by flow cytometry. The class given is functional.
The subject of test [3] is OVCAR-3. Kind of test: Cell cycle arrest in human OVCAR-3 cells assessed as accumulation at S phase at 1 uM by flow cytometry. The class given is functional.
Test [4] concerns OVCAR-3. Kind of test: Cell cycle arrest in human OVCAR-3 cells assessed as accumulation at G0/G1 phase at 1 uM by flow cytometry. The class given is functional.
Test [5] has as its system OVCAR-3. The test is described as follows: Cell cycle arrest in human OVCAR-3 cells assessed as accumulation at G2/M phase at 16 uM by flow cytometry. It counts as functional.
Test [6] deals with OVCAR-3. Kind of test: Cell cycle arrest in human OVCAR-3 cells assessed as accumulation at subG0 phase at 16 uM by flow cytometry. It counts as functional.
Test [7] concerns OVCAR-3. Kind of test: Cell cycle arrest in human OVCAR-3 cells assessed as accumulation at G0/G1 phase at 16 uM by flow cytometry. The class given is functional.
Test [8] deals with OVCAR-3. Kind of test: Cell cycle arrest in human OVCAR-3 cells assessed as accumulation at S phase at 16 uM by flow cytometry. It counts as functional.
In a further test the test system is HeLa. The test is described as follows: Growth inhibition of human HeLa cells after 72 hrs by trypan blue assay. The class given is functional, cell-based.
Test [9] concerns OVCAR-3. The test is described as follows: Cell cycle arrest in human OVCAR-3 cells assessed as accumulation at G0/G1 phase at 10 uM by flow cytometry. The class given is functional.
The test system of test [10] is OVCAR-3. The test is described as follows: Cell cycle arrest in human OVCAR-3 cells assessed as accumulation at subG0 phase at 10 uM by flow cytometry. The class given is functional.
The test system of test [11] is OVCAR-3. The test is described as follows: Cell cycle arrest in human OVCAR-3 cells assessed as accumulation at G2/M phase at 10 uM by flow cytometry. The class given is functional.
The subject of test [12] is OVCAR-3. The test is described as follows: Cell cycle arrest in human OVCAR-3 cells assessed as accumulation at subG0 phase at 5 uM by flow cytometry. It counts as functional.
The subject of test [13] is OVCAR-3. The test is described as follows: Cell cycle arrest in human OVCAR-3 cells assessed as accumulation at S phase at 5 uM by flow cytometry. It counts as functional.
The test system of another test is Salmonidae. The test is described as follows: Binding affinity to Salmon testes DNA assessed as drug-DNA complex formation by linear flow dichroism method.
The test system of another test is HL-60. The test is described as follows: Growth inhibition of human HL60 cells after 72 hrs by trypan blue assay. It counts as functional, cell-based. The settings on record: HL-60, 72 h.
In test [14] the target is DNA topoisomerase 2-alpha (Homo sapiens) (UniProt P11388). Kind of test: Inhibition of human recombinant topoisomerase 2 assessed as relaxation of supercoiled pBR322 DNA.
DNA topoisomerase 2-alpha (Homo sapiens), sequence (P11388 whole entry): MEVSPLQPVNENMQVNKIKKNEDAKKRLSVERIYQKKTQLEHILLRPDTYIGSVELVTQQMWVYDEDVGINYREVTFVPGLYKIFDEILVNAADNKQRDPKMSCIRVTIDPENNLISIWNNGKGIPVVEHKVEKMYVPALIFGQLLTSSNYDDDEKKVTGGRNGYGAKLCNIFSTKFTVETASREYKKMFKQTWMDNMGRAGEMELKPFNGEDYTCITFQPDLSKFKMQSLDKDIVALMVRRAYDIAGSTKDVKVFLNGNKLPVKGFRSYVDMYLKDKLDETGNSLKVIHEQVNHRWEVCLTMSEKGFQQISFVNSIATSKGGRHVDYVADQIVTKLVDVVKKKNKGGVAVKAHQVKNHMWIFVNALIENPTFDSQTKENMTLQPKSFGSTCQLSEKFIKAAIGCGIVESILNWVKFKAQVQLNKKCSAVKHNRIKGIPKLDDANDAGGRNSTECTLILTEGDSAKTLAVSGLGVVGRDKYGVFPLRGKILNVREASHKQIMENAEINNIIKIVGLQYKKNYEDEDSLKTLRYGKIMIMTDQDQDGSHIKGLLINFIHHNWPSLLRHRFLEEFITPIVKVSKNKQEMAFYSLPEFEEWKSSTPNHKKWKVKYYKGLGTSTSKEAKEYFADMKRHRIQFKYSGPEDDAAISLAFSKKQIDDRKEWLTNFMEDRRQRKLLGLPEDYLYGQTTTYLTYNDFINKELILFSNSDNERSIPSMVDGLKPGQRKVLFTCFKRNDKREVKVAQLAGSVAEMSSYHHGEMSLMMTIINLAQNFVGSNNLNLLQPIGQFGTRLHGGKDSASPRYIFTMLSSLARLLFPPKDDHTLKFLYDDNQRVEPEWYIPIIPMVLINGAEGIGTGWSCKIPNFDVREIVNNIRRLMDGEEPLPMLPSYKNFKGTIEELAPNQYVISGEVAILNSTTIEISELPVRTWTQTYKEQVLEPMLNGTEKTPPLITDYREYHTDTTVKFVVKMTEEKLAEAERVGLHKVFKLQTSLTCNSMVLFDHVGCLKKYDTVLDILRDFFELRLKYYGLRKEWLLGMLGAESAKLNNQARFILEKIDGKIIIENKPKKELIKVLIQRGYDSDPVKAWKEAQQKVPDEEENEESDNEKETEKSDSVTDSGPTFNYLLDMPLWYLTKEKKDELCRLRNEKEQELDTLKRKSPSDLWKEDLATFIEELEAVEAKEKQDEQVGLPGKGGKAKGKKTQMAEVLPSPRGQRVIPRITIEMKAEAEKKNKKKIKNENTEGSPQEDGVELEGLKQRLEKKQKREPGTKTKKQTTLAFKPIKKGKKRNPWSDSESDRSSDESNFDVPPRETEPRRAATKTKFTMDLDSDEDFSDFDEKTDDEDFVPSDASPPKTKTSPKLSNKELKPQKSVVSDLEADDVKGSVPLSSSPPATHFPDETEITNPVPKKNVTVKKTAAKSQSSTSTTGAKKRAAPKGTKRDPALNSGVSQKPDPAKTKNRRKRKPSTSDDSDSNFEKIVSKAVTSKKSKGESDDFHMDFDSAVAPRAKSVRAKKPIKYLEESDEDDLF
The test system of test [15] is OVCAR-3. The test is described as follows: Cell cycle arrest in human OVCAR-3 cells assessed as accumulation at G2/M phase at 5 uM by flow cytometry. It counts as functional.
Test [16] concerns OVCAR-3. Kind of test: Growth inhibition of human OVCAR-3 cells after 72 hrs by trypan blue assay. It counts as functional, cell-based. The settings on record: OVCAR-3, 72 h.
Test [17] is described as follows: Growth inhibition of human JR8 cells after 72 hrs by trypan blue assay. The class given is functional, cell-based. The settings on record: JR8, 72 h.
Test [18] has as its system OVCAR-3. The test is described as follows: Cell cycle arrest in human OVCAR-3 cells assessed as accumulation at G0/G1 phase at 5 uM by flow cytometry. The class given is functional.
For test [19], the system named is OVCAR-3. Kind of test: Cell cycle arrest in human OVCAR-3 cells assessed as accumulation at S phase at 10 uM by flow cytometry. The class given is functional.

For the molecule `CC[C@]1(O)C[C@H]2CN(CCc3c([nH]c4ccccc34)[C@@](C(=O)OC)(c3cc4c(cc3OC)N(C=O)[C@H]3[C@@](O)(C(=O)OC)[C@H](OC(C)=O)[C@]5(CC)C=CCN6CC[C@]43[C@@H]65)C2)C1` [VINCRISTINE], the Activity with OVCAR-3 [1] is reported as 0.5%; in the test with OVCAR-3 [2] it was 45.2%; in the test on OVCAR-3 [3], 7.9%; in the test on OVCAR-3 [4] it was 46.8%.

On to `COc1cc(NS(C)(=O)=O)ccc1Nc1c2ccccc2nc2ccccc12` [AMSACRINE], for which the Activity in the test on OVCAR-3 [5] was determined as 41.3%; in the test with OVCAR-3 [6] it was 1.8%; in the test with OVCAR-3 [7], 44.7%; in the test on OVCAR-3 [8] it was 12.7%.

For `CC(=O)c1ccc(Nc2ccnc3ccc4[nH]ccc4c23)cc1.Cl`, the IC50 (commonly the concentration at which inhibition is half-maximal) in the test on HeLa came to 3400 nM; with HL-60, 500 nM; in the test with OVCAR-3 [16], 530 nM; in test [17], 590 nM. For the same molecule, the Activity in the test on OVCAR-3 [9] stood at 24.5%; in the test on OVCAR-3 [10] it was 0.5%; with OVCAR-3 [11], 63.7%; with OVCAR-3 [1], 7.6%; in the test on OVCAR-3 [12], 4.3%; in the test with OVCAR-3 [13], 13.6%. Further, the Activity result in test [14] is “Dose-dependent effect”; in the test with OVCAR-3 [2], 31.4%; in the test with OVCAR-3 [15], 57.8%; in the test with OVCAR-3 [3] it was 9.4%; in the test on OVCAR-3 [4], 51.9%; in the test with OVCAR-3 [18], 24.7%. Further, in the test on OVCAR-3 [19], the Activity came out at 11.6%. In addition, the outcome in the test with Salmonidae was Active.
